# Data: ChEMBL document CHEMBL3045810, “Synthesis and evaluation of 4-(substituted)-acetylamino-3-mercapto-5-(4-substituted) phenyl-1,2,4-triazole derivatives as antimicrobial agents” (2012)
# Calls of active or inactive are those of the source. The calls are words filed in the database; no cut-off is given here.
# Experiments:
# Escherichia coli [1] = test: Antibacterial activity against Escherichia coli ATCC 8793 at 70 ug/ml after 24 hr by paper disk diffusion method; type: functional; conditions: ATCC 8793, 24 h, read-out: DIZ
# Fusarium oxysporum [2] = test: Fungicidal activity against Fusarium oxysporum MTCC 2087; type: functional, organism-based
# Aspergillus niger [3] = test: Fungicidal activity against Aspergillus niger MTCC 3323; type: functional, organism-based
# Candida albicans [4] = test: Fungicidal activity against Candida albicans MTCC 227; type: functional, organism-based
# Bacillus subtilis [5] = test: Bactericidal against Bacillus subtilis ATCC 6633; type: functional, organism-based
# Staphylococcus aureus [6] = test: Antibacterial activity against Staphylococcus aureus ATCC 25923 at 50 ug/ml after 24 hr by paper disk diffusion method; type: functional; conditions: ATCC 25923, 24 h, read-out: DIZ
# Staphylococcus aureus [7] = test: Antibacterial activity against Staphylococcus aureus ATCC 25923 at 70 ug/ml after 24 hr by paper disk diffusion method; type: functional; conditions: ATCC 25923, 24 h, read-out: DIZ
# Pseudomonas aeruginosa [8] = test: Antibacterial activity against Pseudomonas aeruginosa ATCC 27853 at 30 ug/ml after 24 hr by paper disk diffusion method; type: functional; conditions: ATCC 27853, 24 h, read-out: DIZ
# Pseudomonas aeruginosa [9] = test: Antibacterial activity against Pseudomonas aeruginosa ATCC 27853 at 50 ug/ml after 24 hr by paper disk diffusion method; type: functional; conditions: ATCC 27853, 24 h, read-out: DIZ
# Pseudomonas aeruginosa [10] = test: Antibacterial activity against Pseudomonas aeruginosa ATCC 27853 at 70 ug/ml after 24 hr by paper disk diffusion method; type: functional; conditions: ATCC 27853, 24 h, read-out: DIZ
# Escherichia coli [11] = test: Antibacterial activity against Escherichia coli ATCC 8793 at 30 ug/ml after 24 hr by paper disk diffusion method; type: functional; conditions: ATCC 8793, 24 h, read-out: DIZ
# Escherichia coli [12] = test: Antibacterial activity against Escherichia coli ATCC 8793 at 50 ug/ml after 24 hr by paper disk diffusion method; type: functional; conditions: ATCC 8793, 24 h, read-out: DIZ
# Staphylococcus aureus [13] = test: Bactericidal activity against Staphylococcus aureus ATCC 25923; type: functional, organism-based
# Pseudomonas aeruginosa [14] = test: Bactericidal activity against Pseudomonas aeruginosa ATCC 27853; type: functional, organism-based
# Escherichia coli [15] = test: Bactericidal activity against Escherichia coli ATCC 8793; type: functional, organism-based
# Fusarium oxysporum [16] = test: Antifungal activity against Fusarium oxysporum MTCC 2087 at 30 ug/ml by paper disk diffusion method; type: functional; conditions: read-out: DIZ
# Fusarium oxysporum [17] = test: Antifungal activity against Fusarium oxysporum MTCC 2087 at 50 ug/ml by paper disk diffusion method; type: functional; conditions: read-out: DIZ
# Fusarium oxysporum [18] = test: Antifungal activity against Fusarium oxysporum MTCC 2087 at 70 ug/ml by paper disk diffusion method; type: functional; conditions: read-out: DIZ
# Aspergillus niger [19] = test: Antifungal activity against Aspergillus niger MTCC 3323 at 30 ug/ml by paper disk diffusion method; type: functional; conditions: read-out: DIZ
# Aspergillus niger [20] = test: Antifungal activity against Aspergillus niger MTCC 3323 at 50 ug/ml by paper disk diffusion method; type: functional; conditions: read-out: DIZ
# Aspergillus niger [21] = test: Antifungal activity against Aspergillus niger MTCC 3323 at 70 ug/ml by paper disk diffusion method; type: functional; conditions: read-out: DIZ
# Candida albicans [22] = test: Antifungal activity against Candida albicans MTCC 227 at 30 ug/ml by paper disk diffusion method; type: functional; conditions: read-out: DIZ
# Candida albicans [23] = test: Antifungal activity against Candida albicans MTCC 227 at 50 ug/ml by paper disk diffusion method; type: functional; conditions: read-out: DIZ
# Candida albicans [24] = test: Antifungal activity against Candida albicans MTCC 227 at 70 ug/ml by paper disk diffusion method; type: functional; conditions: read-out: DIZ
# Bacillus subtilis [25] = test: Antibacterial activity against Bacillus subtilis ATCC 6633 at 30 ug/ml after 24 hr by paper disk diffusion method; type: functional; conditions: ATCC 6633, 24 h, read-out: DIZ
# Bacillus subtilis [26] = test: Antibacterial activity against Bacillus subtilis ATCC 6633 at 50 ug/ml after 24 hr by paper disk diffusion method; type: functional; conditions: ATCC 6633, 24 h, read-out: DIZ
# Bacillus subtilis [27] = test: Antibacterial activity against Bacillus subtilis ATCC 6633 at 70 ug/ml after 24 hr by paper disk diffusion method; type: functional; conditions: ATCC 6633, 24 h, read-out: DIZ
# Staphylococcus aureus [28] = test: Antibacterial activity against Staphylococcus aureus ATCC 25923 at 30 ug/ml after 24 hr by paper disk diffusion method; type: functional; conditions: ATCC 25923, 24 h, read-out: DIZ
Compound,zone of inhibition at 70 µg/mL (Escherichia coli [1]) [mm],zone of inhibition at 50 µg/mL (Staphylococcus aureus [6]) [mm],zone of inhibition at 70 µg/mL (Staphylococcus aureus [7]) [mm],zone of inhibition at 30 µg/mL (Pseudomonas aeruginosa [8]) [mm],zone of inhibition at 50 µg/mL (Pseudomonas aeruginosa [9]) [mm],zone of inhibition at 70 µg/mL (Pseudomonas aeruginosa [10]) [mm],zone of inhibition at 30 µg/mL (Escherichia coli [11]) [mm],zone of inhibition at 50 µg/mL (Escherichia coli [12]) [mm],zone of inhibition at 30 µg/mL (Fusarium oxysporum [16]) [mm],zone of inhibition at 50 µg/mL (Fusarium oxysporum [17]) [mm],zone of inhibition at 70 µg/mL (Fusarium oxysporum [18]) [mm],zone of inhibition at 30 µg/mL (Aspergillus niger [19]) [mm],zone of inhibition at 50 µg/mL (Aspergillus niger [20]) [mm],zone of inhibition at 70 µg/mL (Aspergillus niger [21]) [mm],zone of inhibition at 30 µg/mL (Candida albicans [22]) [mm],zone of inhibition at 50 µg/mL (Candida albicans [23]) [mm],zone of inhibition at 70 µg/mL (Candida albicans [24]) [mm],zone of inhibition at 30 µg/mL (Bacillus subtilis [25]) [mm],zone of inhibition at 50 µg/mL (Bacillus subtilis [26]) [mm],zone of inhibition at 30 µg/mL (Staphylococcus aureus [28]) [mm],further results
CCCCN(CCCC)CC(=O)Nn1c(S)nnc1-c1ccc(OC)cc1,17.3,15.2,17.2,15.1,16.2,18.2,13,15.1,13.1,14.3,16.2,18.1,20.1,22.4,16.1,18.3,20.4,11.2,13,13.1,Activity (Fusarium oxysporum [2]): Active; Activity (Aspergillus niger [3]): Active; Activity (Candida albicans [4]): Active; Activity (Bacillus subtilis [5]): Active; Activity (Staphylococcus aureus [13]): Active; Activity (Pseudomonas aeruginosa [14]): Active; Activity (Escherichia coli [15]): Active; zone of inhibition at 70 µg/mL (Bacillus subtilis [27]): 15.2 mm
NCC[C@H](O)C(=O)N[C@@H]1C[C@H](N)[C@@H](O[C@H]2O[C@H](CN)[C@@H](O)[C@H](O)[C@H]2O)[C@H](O)[C@H]1O[C@H]1O[C@H](CO)[C@@H](O)[C@H](N)[C@H]1O [AMIKACIN],,,,22.1,,,21.3,,,,,,,,,,,,,,
CCCCN(CCCC)CC(=O)Nn1c(S)nnc1-c1ccc(C)cc1,13.2,12.1,14,12.3,13.6,14.1,11.2,12.1,8.17,9.2,11.4,15.1,16.2,18,11.1,12.2,13.2,10.3,11.2,11.1,Activity (Fusarium oxysporum [2]): Active; Activity (Aspergillus niger [3]): Active; Activity (Candida albicans [4]): Active; Activity (Bacillus subtilis [5]): Active; Activity (Staphylococcus aureus [13]): Active; Activity (Pseudomonas aeruginosa [14]): Active; Activity (Escherichia coli [15]): Active; zone of inhibition at 70 µg/mL (Bacillus subtilis [27]): 12.2 mm
CN[C@H](CC(C)C)C(=O)N[C@H]1C(=O)N[C@@H](CC(N)=O)C(=O)N[C@H]2C(=O)N[C@H]3C(=O)N[C@H](C(=O)N[C@H](C(=O)O)c4cc(O)cc(O)c4-c4cc3ccc4O)[C@H](O)c3ccc(c(Cl)c3)Oc3cc2cc(c3O[C@@H]2O[C@H](CO)[C@@H](O)[C@H](O)[C@H]2O[C@H]2C[C@](C)(N)[C@H](O)[C@H](C)O2)Oc2ccc(cc2Cl)[C@H]1O [VANCOMYCIN],,,,,,,,,,,,,,,,,,17.4,,18.2,
Clc1ccccc1C(c1ccccc1)(c1ccccc1)n1ccnc1 [CLOTRIMAZOLE],,,,,,,,,19.3,,,22.6,,,21.9,,,,,,
CCCCN(C)CC(=O)Nn1c(S)nnc1-c1ccc(C)cc1,9.2,8.23,9.26,8.2,9.33,10.3,7.26,8.56,6.03,7.2,8.13,7,8.26,9.17,8.16,9.23,10.1,7.43,8.2,7.4,zone of inhibition at 70 µg/mL (Bacillus subtilis [27]): 9.23 mm
CCCN(CCC)CC(=O)Nn1c(S)nnc1-c1ccc(C)cc1,11.1,9.33,10,9.56,10.2,11.1,9.33,10.3,7.26,8.4,9.96,11.2,12.3,14.4,9.13,10.5,11.3,8.93,9.86,8.2,Activity (Fusarium oxysporum [2]): Active; Activity (Aspergillus niger [3]): Active; Activity (Candida albicans [4]): Active; Activity (Bacillus subtilis [5]): Active; Activity (Staphylococcus aureus [13]): Active; Activity (Pseudomonas aeruginosa [14]): Active; Activity (Escherichia coli [15]): Active; zone of inhibition at 70 µg/mL (Bacillus subtilis [27]): 10.1 mm
CCCCCN(CCCCC)CC(=O)Nn1c(S)nnc1-c1ccc(OC)cc1,10.2,8.13,9.16,6.23,7.13,8.1,8.97,9.26,6.17,7.21,8.2,11.2,12.2,13,10.1,11.3,12.2,6.13,7.26,7.2,Activity (Fusarium oxysporum [2]): inactive; Activity (Aspergillus niger [3]): inactive; Activity (Candida albicans [4]): inactive; Activity (Bacillus subtilis [5]): Active; Activity (Staphylococcus aureus [13]): Active; Activity (Pseudomonas aeruginosa [14]): Active; Activity (Escherichia coli [15]): Active; zone of inhibition at 70 µg/mL (Bacillus subtilis [27]): 8.03 mm
CCCN(CCC)CC(=O)Nn1c(S)nnc1-c1ccc(OC)cc1,14.2,13.2,14.8,12.2,13.2,14.1,11.1,12.2,10.2,11.1,12.2,14,15.2,17,12.5,13.2,15.1,10.2,11,12.7,Activity (Fusarium oxysporum [2]): Active; Activity (Aspergillus niger [3]): Active; Activity (Candida albicans [4]): Active; Activity (Bacillus subtilis [5]): Active; Activity (Staphylococcus aureus [13]): Active; Activity (Pseudomonas aeruginosa [14]): Active; Activity (Escherichia coli [15]): Active; zone of inhibition at 70 µg/mL (Bacillus subtilis [27]): 12.8 mm
CCCCN(C)CC(=O)Nn1c(S)nnc1-c1ccc(OC)cc1,9.6,11,13.5,9.2,10.4,12.2,7.2,8.63,6.16,6.26,7.23,10.6,11.1,13.2,11.1,12.2,14.2,9.27,10.2,10.2,Activity (Fusarium oxysporum [2]): Active; Activity (Aspergillus niger [3]): Active; Activity (Candida albicans [4]): Active; Activity (Bacillus subtilis [5]): Active; Activity (Staphylococcus aureus [13]): Active; Activity (Pseudomonas aeruginosa [14]): Active; Activity (Escherichia coli [15]): Active; zone of inhibition at 70 µg/mL (Bacillus subtilis [27]): 11.2 mm
